Biological target: T1, LASV FD (Lassa virus fusion domain, G260-N295) (Lassa virus Josiah, UniProt P08669)
T1 construct: gene GPC
Test: biochemical
Type: binding

T1 sequence (P08669 260-295 limits assumed): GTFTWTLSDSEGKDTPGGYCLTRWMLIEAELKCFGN

CCCCCCCC/C=C\CCCCCCCC(=O)O[C@H](COC(=O)CCCCCCCCCCCCCCC)COP(=O)([O-])OCC[N+](C)(C)C [POPC, 1-palmitoyl-2-oleoyl-glycero-3-phosphocholine]
Kd: 657 ± 17 µM

Source: publication PMC13351859 (Biophysical Journal, 2026)
